# Assay results from paper PMC4858680, “A platinum-based hybrid drug design approach to circumvent acquired resistance to molecular targeted tyrosine kinase inhibitors” (Scientific Reports, 2016).
# Key:
# ABL1-nonphosphorylated [1] = target: T1, ABL1-nonphosphorylated (Homo sapiens, UniProt P00519); assay: biochemical; conditions: read-out: Percent control
# HEK293 Mock transfected = assay: Anticancer activity in mock transfected HEK293; format: cell-based; conditions: Bcr-Abl negative
# DDR2 = target: T2, DDR2 (Homo sapiens, UniProt Q16832); assay: biochemical; conditions: read-out: Percent control
# T2 sequence (Q16832 22-855): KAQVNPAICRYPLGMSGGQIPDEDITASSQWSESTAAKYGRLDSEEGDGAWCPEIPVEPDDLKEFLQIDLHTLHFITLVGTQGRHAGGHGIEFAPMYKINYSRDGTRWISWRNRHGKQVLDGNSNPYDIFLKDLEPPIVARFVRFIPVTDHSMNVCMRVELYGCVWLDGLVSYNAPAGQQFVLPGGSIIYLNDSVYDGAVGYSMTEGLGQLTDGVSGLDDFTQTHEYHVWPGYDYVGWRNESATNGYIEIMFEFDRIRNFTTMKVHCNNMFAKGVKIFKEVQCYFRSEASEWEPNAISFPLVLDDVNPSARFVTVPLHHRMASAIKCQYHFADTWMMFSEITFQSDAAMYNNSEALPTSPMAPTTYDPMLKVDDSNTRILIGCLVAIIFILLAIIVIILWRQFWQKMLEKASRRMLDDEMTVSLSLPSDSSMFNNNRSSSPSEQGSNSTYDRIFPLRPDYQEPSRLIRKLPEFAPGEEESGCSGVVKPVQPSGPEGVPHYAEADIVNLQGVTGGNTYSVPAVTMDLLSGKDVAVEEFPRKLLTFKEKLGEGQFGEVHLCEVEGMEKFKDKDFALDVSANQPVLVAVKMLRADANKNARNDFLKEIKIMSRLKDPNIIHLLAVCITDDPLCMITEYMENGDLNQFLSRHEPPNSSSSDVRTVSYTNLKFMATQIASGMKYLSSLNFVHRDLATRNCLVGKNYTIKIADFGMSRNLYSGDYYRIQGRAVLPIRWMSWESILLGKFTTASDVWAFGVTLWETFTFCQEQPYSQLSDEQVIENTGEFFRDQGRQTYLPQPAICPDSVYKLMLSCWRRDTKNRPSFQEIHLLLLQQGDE
# ZAP70 = target: T3, ZAP70 (Homo sapiens, UniProt P43403); assay: biochemical; conditions: read-out: Percent control
# T3 sequence (P43403 1-619): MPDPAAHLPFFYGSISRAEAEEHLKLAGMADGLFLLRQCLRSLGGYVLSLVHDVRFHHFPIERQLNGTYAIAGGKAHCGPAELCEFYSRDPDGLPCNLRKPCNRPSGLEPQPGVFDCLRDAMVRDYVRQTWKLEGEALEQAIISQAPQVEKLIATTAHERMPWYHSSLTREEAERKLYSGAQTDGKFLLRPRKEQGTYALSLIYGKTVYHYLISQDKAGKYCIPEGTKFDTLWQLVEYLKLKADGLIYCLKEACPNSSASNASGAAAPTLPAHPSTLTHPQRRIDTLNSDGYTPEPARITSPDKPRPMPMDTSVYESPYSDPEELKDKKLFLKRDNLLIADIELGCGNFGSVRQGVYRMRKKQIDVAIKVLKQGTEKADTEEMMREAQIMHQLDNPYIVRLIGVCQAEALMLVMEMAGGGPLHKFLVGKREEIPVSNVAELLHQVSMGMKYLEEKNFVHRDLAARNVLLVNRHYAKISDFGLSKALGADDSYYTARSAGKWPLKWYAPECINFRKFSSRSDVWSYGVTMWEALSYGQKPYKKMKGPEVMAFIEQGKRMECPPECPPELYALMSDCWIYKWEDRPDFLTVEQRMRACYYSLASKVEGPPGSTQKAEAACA
# ABL1-nonphosphorylated [2] = target: T1, ABL1-nonphosphorylated; conditions: 10 μM
# [3] = target: ABL1(Q252H)-phosphorylated (Homo sapiens, UniProt P00519, Q252H); conditions: 10 μM
# [4] = target: ABL1(Q252H)-nonphosphorylated (Homo sapiens, UniProt P00519, Q252H); conditions: 10 μM
# P-gp (MDCKII–P-gp) = P-gp (MDCKII–P-gp) (Homo sapiens, UniProt P08183); conditions: 10 μM, mean of three experiments
# [5] = target: ABL1(H396P)-phosphorylated (Homo sapiens, UniProt P00519, H396P); conditions: 10 μM
# [6] = target: ABL1(F317I)-phosphorylated (Homo sapiens, UniProt P00519, F317I); conditions: 10 μM
# Chain of P-gp (MDCKII–P-gp) (P08183 whole entry): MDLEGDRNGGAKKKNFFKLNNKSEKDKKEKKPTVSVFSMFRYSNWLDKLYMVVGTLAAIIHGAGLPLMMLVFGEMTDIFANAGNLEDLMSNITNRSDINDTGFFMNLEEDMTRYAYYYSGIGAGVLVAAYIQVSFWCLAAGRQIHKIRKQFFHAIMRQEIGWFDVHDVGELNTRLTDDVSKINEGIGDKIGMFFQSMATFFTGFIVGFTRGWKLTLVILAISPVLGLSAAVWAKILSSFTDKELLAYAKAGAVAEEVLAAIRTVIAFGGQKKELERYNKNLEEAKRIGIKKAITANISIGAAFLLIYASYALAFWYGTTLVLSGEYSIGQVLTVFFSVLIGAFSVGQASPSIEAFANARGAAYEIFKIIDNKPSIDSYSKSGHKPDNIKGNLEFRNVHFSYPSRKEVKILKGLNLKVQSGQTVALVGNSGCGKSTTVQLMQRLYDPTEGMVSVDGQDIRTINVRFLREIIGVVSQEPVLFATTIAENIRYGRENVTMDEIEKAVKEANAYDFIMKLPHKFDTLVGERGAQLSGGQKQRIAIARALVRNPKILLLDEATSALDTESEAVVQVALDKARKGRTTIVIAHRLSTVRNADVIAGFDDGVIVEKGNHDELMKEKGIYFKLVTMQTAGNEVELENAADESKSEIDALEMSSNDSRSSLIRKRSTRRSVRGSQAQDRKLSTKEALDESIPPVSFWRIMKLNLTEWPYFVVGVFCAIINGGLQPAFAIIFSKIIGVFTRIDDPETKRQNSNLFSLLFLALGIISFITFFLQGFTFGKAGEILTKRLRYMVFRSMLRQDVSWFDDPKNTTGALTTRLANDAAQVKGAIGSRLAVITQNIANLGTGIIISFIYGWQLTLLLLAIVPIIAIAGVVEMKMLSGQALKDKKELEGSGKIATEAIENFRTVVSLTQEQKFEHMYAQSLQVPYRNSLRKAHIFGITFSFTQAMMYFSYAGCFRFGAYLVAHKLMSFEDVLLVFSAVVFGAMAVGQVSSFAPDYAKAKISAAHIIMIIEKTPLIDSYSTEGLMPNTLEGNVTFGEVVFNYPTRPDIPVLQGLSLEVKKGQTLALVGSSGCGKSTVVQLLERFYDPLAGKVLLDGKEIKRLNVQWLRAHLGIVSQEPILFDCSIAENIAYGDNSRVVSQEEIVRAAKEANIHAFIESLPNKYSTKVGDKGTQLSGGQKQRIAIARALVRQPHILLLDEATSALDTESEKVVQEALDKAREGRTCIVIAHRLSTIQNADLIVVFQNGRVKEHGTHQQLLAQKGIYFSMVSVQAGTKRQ
smiles,measurement,setting,value
C#Cc1cccc(Nc2ncnc3cc(OCCOC)c(OCCOC)cc23)c1 [Erlotinib],remaining activity at 10 µM,ABL1-nonphosphorylated [1],3.2%
"Cc1ccc(NC(=O)c2ccc(CN3CCN(C)CC3)cc2)cc1Nc1nccc(-c2cccnc2)[n+]1[Pt-2]1([Cl])[NH2+]C2CCCCC2[NH2+]1 (centres unmarked) [1b, oxaliplatin-imatinib]",IC50,HEK293 Mock transfected,10.6 ± 1.58 µM
"COc1cc2c(Nc3ccc(Br)cc3F)ncnc2cc1OCC1CCN(C)CC1 [Vandetanib, reference compound]",remaining activity at 10 µM,DDR2,3.1%
same,remaining activity at 10 µM,ZAP70,100%
"C#Cc1cccc(Nc2c3cc(OCCOC)c(OCCOC)cc3nc[n+]2[Pt@SP2-2]([NH3+])([NH3+])[Cl])c1 [2a, cisplatin-erlotinib]",Percent control,ABL1-nonphosphorylated [2],25%
same,Percent control,[3],12%
same,Percent control,[4],13%
same,A to B transport (apparent permeability),P-gp (MDCKII–P-gp),3.32 × 10^−6
same,B to A transport (apparent permeability),P-gp (MDCKII–P-gp),2.82 × 10^−6
same,Percent control,[5],13%
same,Percent control,[6],49%
